Results from the NIST ThermoML archive (doi:10.1016/j.jct.2011.01.014).
± gives the expanded uncertainty stated by the source.

Conditions: Liquid; for mass density: Vibrating tube method; for speed of sound: sound velocity cell

CCO [ethanol]
101 kPa
Conditions | mass density [kg/m3] | speed of sound [m/s]
288.15 K | 793.828 ± 0.14 | 1177.8 ± 1.1
290.65 K | 791.692 ± 0.14 | 1169.2 ± 1.1
293.15 K | 789.553 ± 0.14 | 1160.6 ± 1.1
295.65 K | 787.411 ± 0.14 | 1152 ± 1.1
298.15 K | 785.261 ± 0.14 | 1143.5 ± 1.1
300.65 K | 783.106 ± 0.14 | 1135 ± 1.1
303.15 K | 780.944 ± 0.14 | 1126.5 ± 1.1
305.65 K | 778.773 ± 0.14 | 1118.1 ± 1.1
308.15 K | 776.593 ± 0.14 | 1109.7 ± 1.1
310.65 K | 774.405 ± 0.14 | 1101.2 ± 1.1
313.15 K | 772.204 ± 0.14 | 1092.8 ± 1.1
315.65 K | 769.995 ± 0.14 | 1084.5 ± 1.1
318.15 K | 767.77 ± 0.15 | 1076.2 ± 1.1
320.65 K | 765.534 ± 0.15 | 1067.9 ± 1.1
323.15 K | 763.296 ± 0.15 | 1059.6 ± 1.1

CC(=O)[O-].[NH3+]CCO [2-hydroxyethylammonium acetate]
Conditions | mass density, 101 kPa [kg/m3] | mass density, 101.33 kPa [kg/m3] | speed of sound, 101 kPa [m/s] | speed of sound, 101.33 kPa [m/s]
288.15 K | 1154.7 ± 2.6 | – | 1817.2 ± 3.2 | –
290.65 K | 1153.28 ± 2.6 | – | 1810 ± 3.2 | –
293.15 K | 1151.87 ± 2.5 | – | 1803.2 ± 3.2 | –
295.65 K | 1150.45 ± 2.5 | – | 1796.8 ± 3.2 | –
298.15 K | – | 1149.04 ± 2.5 | 1790.7 ± 3.2 | 1790.7 ± 3
300.65 K | 1147.63 ± 2.5 | – | 1784.8 ± 3.2 | –
303.15 K | 1146.22 ± 2.5 | – | 1779 ± 3.2 | –
305.65 K | 1144.8 ± 2.5 | – | 1773.4 ± 3.2 | –
308.15 K | 1143.39 ± 2.5 | – | 1767.9 ± 3.2 | –
310.65 K | 1141.96 ± 2.5 | – | 1762.5 ± 3.2 | –
313.15 K | 1140.55 ± 2.5 | – | 1757.2 ± 3.2 | –
315.15 K | 1139.18 ± 2.5 | – | – | –
315.65 K | 1139.18 ± 2.5 | – | 1751.9 ± 3.2 | –
318.15 K | 1137.82 ± 2.5 | – | 1746.5 ± 3.2 | –
320.65 K | 1136.45 ± 2.5 | – | 1741.3 ± 3.2 | –
323.15 K | 1135.08 ± 2.5 | – | 1736 ± 3.2 | –

O [water]
101 kPa
Conditions | mass density [kg/m3] | speed of sound [m/s]
290.65 K | 998.68 ± 0.068 | 1474.7 ± 1
295.65 K | 997.65 ± 0.068 | 1489.9 ± 1
300.65 K | 996.37 ± 0.069 | 1503.4 ± 1
305.65 K | 994.86 ± 0.069 | 1515.1 ± 1
310.65 K | 993.15 ± 0.07 | 1525 ± 1
313.15 K | – | 1529.3 ± 1
315.15 K | 991.24 ± 0.07 | –
315.65 K | – | 1533.2 ± 1
318.15 K | – | 1536.6 ± 1
320.65 K | 989.15 ± 0.071 | 1539.6 ± 1
323.15 K | 988.04 ± 0.071 | 1542.1 ± 1
